Results published in patent publication US8993585B2, “Cyclic amine substituted pyrimidinediamines as PKC inhibitors” (Rigel Pharmaceuticals, Inc., priority 2007, dated 2015).

Tests used:
PKC theta = molecular target: T1, PKC theta (Homo sapiens, UniProt Q04759); test: PKC assay, fluorescence polarization (Example 2), PKC theta; type: biochemical; settings: 5 μM ATP
T1 construct: purchased Upstate Biotechnologies, Temecula, CA 14-444
Description: (§1) The inhibition of PKC activity was measured by monitoring the production of phosphorylated peptide by fluorescence polarization at different concentrations of the inhibitor. Reactions were carried out in 96-well plate format with a total volume of 20 μL containing 20 mM HEPES, pH 7.4, 5 mM MgCl2, 0.2 mM CaCl2, 1 mM DTT, 0.02% Brij-35, 0.1 mg/mL phosphatidylserine, 0.02 mg/mL dioleoyl-sn-glycerol and 5 μM each of ATP and the peptide substrate. Compounds were first diluted serially in DMSO and then transferred to a solution containing the above concentrations of HEPES, MgCl2, CaCl2, DTT, and Brij-35 to yield 5× compound solutions in 2% DMSO, which was then added to the reaction solution. Reactions were initiated by the addition of PKC at a typical concentration as described in Table VI, and then allowed to incubate at room temperature for 20 min. At the end of this time, a combination of quench (EDTA) and detection (peptide tracer and antibody) reagents was added using the protocol of Invitrogen P2748.

Human primary T cells = test: IL-2 ELISA, Human Primary T Cell, Anti-CD3+CD28+ (Example 3); type: cell-based; settings: anti-CD3+CD28 stimulation
Outline: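 IL-2 was read by ELISA after stimulation on wells pre-coated with 1 ug/ml αCD3 and 5 μg/ml αCD28. Before this, 100,000 human primary T cells per well spent 1 h at 37 °C with test compound in Yssel's medium. The counter-screen replaced antibody stimulation with PMA (0.5 ng/ml final) and ionomycin (0.1 uM final).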

PKC epsilon = molecular target: T2, PKC epsilon (Homo sapiens, UniProt Q02156); test: PKC assay, fluorescence polarization (Example 2), PKC epsilon; type: biochemical; settings: 5 μM ATP
T2 construct: purchased Upstate Biotechnologies, Temecula, CA 14-518
T2 sequence (Q02156 1-737): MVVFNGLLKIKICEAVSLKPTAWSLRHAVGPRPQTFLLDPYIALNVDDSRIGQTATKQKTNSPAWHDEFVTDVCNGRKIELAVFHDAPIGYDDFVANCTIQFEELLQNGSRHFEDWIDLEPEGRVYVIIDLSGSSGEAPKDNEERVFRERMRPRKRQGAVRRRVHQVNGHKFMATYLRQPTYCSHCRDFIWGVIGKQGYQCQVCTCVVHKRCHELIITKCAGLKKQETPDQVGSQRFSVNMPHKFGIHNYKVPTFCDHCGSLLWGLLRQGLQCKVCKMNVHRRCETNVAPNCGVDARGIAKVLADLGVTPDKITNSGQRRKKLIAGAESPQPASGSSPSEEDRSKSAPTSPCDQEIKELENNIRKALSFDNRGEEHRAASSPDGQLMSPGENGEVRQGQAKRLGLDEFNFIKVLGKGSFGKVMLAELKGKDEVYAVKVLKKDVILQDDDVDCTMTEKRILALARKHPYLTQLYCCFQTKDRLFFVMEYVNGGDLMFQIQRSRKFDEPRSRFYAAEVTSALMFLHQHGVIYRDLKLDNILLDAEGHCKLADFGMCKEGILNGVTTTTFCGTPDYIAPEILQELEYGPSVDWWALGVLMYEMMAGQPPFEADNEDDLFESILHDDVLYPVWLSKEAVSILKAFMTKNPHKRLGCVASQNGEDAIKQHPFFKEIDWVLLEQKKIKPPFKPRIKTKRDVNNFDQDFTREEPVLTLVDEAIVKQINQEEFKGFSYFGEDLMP
Description: as §1

T1 sequence (Q04759 whole entry): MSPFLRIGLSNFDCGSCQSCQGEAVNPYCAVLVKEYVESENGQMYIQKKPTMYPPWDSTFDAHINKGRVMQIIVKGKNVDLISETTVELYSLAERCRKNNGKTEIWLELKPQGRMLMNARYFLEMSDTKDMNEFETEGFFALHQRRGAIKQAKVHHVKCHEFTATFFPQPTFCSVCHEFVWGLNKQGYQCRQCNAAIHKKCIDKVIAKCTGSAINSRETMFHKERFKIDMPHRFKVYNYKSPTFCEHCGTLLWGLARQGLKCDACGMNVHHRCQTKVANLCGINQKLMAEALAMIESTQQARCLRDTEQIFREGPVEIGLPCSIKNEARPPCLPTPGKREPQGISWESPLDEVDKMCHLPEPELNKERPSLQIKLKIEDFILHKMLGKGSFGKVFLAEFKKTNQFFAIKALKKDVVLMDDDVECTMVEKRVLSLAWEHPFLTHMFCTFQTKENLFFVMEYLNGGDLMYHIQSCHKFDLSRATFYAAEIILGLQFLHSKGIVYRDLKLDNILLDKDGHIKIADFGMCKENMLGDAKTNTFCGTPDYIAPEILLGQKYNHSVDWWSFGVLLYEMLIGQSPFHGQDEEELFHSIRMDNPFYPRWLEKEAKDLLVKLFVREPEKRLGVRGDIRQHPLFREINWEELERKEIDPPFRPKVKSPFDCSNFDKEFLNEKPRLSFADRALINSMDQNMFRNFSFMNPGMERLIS

IC50 (PKC theta) [nM] | IC50 (Human primary T cells; Homo sapiens, T-cell, 24 h) [nM] | IC50 (PKC epsilon) [nM] | IC50 (Human primary T cells; 24 hours) [nM] | SMILES
29.1 | 112 | 19 |  | CN1C(C)(C)CC(Nc2nc(Nc3ccc(N4CCOCC4)c(C(F)(F)F)c3)ncc2F)CC1(C)C [Compound I-224]
0.81 | 243 | 160 |  | CN1CCN(c2ccc(Nc3ncc(C(F)(F)F)c(NC4CC(C)(C)N(C)C(C)(C)C4)n3)cc2C#N)CC1 [Compound I-178]
2.56 | 292 | 311 |  | CN1C(C)(C)CC(Nc2nc(Nc3ccc(Cl)c(C#N)c3)ncc2Cl)CC1(C)C [Compound I-165]
4.56 | 208 | 271 |  | CN1C(C)(C)CC(Nc2nc(Nc3ccc(N4CCN(S(C)(=O)=O)CC4)c(Cl)c3)ncc2C(F)(F)F)CC1(C)C [Compound I-92]
12.6 | 217 | 218 |  | CN1C(C)(C)CC(Nc2nc(Nc3ccc(N4CCN(S(C)(=O)=O)CC4)c(Cl)c3)ncc2C#N)CC1(C)C [Compound I-102]
13.5 | 223 | 150 |  | CN1C(C)(C)CC(Nc2nc(Nc3ccc(-n4cccc4)c(C#N)c3)ncc2F)CC1(C)C [Compound I-148]
7.26 | 96 | 43 |  | COc1cc(Nc2ncc(C(F)(F)F)c(NC3CC(C)(C)N(C)C(C)(C)C3)n2)cc(-n2cnnn2)c1 [Compound I-356]
1.71 | 122 | 89.6 |  | COc1ccc(Nc2ncc(C#N)c(NC3CC(C)(C)N(C)C(C)(C)C3)n2)cc1OC(F)F [Compound I-366]
1.27 | 156 | 16.8 |  | CN1C(C)(C)CC(Nc2nc(Nc3ccc(N4CCOCC4)c(OC(F)F)c3)ncc2F)CC1(C)C [Compound I-235]
5.51 | 94.6 | 131 |  | CN1CCN(c2ccc(Nc3ncc(C#N)c(NC4CC(C)(C)N(C)C(C)(C)C4)n3)cc2Cl)CC1 [Compound I-101]
1.58 | 289 | 175 |  | CN1C(C)(C)CC(Nc2nc(Nc3cccc(C#N)c3)ncc2C#N)CC1(C)C [Compound I-97]
1.11 | 185 | 41.9 |  | CN1C(C)(C)CC(Nc2nc(Nc3ccc(N4CCCC4)c(C#N)c3)ncc2F)CC1(C)C [Compound I-200]
0.3 | 50 | 22 |  | Cc1ccc(Nc2ncc(C#N)c(NC3CC(C)(C)N(C)C(C)(C)C3)n2)cc1-n1cnnn1 [Compound I-459]
6.52 | 216 | 18.4 |  | CCCN1CCN(c2cc(Nc3ncc(F)c(NC4CC(C)(C)N(C)C(C)(C)C4)n3)ccc2C(F)(F)F)CC1 [Compound I-218]
8.01 | 168 | 115 |  | COc1ccc(Nc2ncc(F)c(NC3CC(C)(C)N(C)C(C)(C)C3)n2)cc1C(F)(F)F [Compound I-147]
5.99 | 174 | 29 |  | CN1C(C)(C)CC(Nc2nc(Nc3ccc(C(F)(F)F)c(N4CCN(S(C)(=O)=O)CC4)c3)ncc2F)CC1(C)C [Compound I-216]
2.92 | 80.7 | 31 |  | Cc1ccc(Nc2ncc(F)c(NC3CC(C)(C)N(C)C(C)(C)C3)n2)cc1C#N [Compound I-142]
1.82 | 64.9 | 12.5 |  | CN1CCN(c2ccc(Nc3ncc(F)c(NC4CC(C)(C)N(C)C(C)(C)C4)n3)cc2C#N)CC1 [Compound I-132]

Continued, compound first:

SMILES | IC50 (PKC theta) [nM] | IC50 (Human primary T cells; Homo sapiens, T-cell, 24 h) [nM] | IC50 (PKC epsilon) [nM] | IC50 (Human primary T cells; 24 hours) [nM]
CC1(C)CC(Nc2nc(Nc3cc(OCC(F)(F)F)cc(OCC(F)(F)F)c3)ncc2F)CC(C)(C)N1 [Compound I-375] | 1.2 | 350 | 200 | 
Cc1ccc(Nc2ncc(F)c(NC3CC(C)(C)N(C)C(C)(C)C3)n2)cc1-c1ccoc1 [Compound I-188] | 4.74 | 178 | 36.7 | 
COc1ccc(Nc2ncc(F)c(NC3CC(C)(C)NC(C)(C)C3)n2)cc1OC(F)F [Compound I-444] | 1.1 | 180 | 157 | 
CSc1nnnn1-c1cccc(Nc2ncc(C(N)=O)c(NC3CC(C)(C)N(C)C(C)(C)C3)n2)c1 [Compound I-456] | 6.3 | 350 | 49 | 
COc1cc(Nc2ncc(F)c(NC3CC(C)(C)N(C)C(C)(C)C3)n2)cc(-n2cnnn2)c1 [Compound I-342] | 0.95 | 31.8 | 1.57 | 
CN1C(C)(C)CC(Nc2nc(Nc3ccc(-c4ccoc4)c(F)c3)ncc2F)CC1(C)C [Compound I-119] | 55.3 | 309 | 27.8 | 
CN1C(C)(C)CC(Nc2nc(Nc3cc(OCC(F)(F)F)cc(OCC(F)(F)F)c3)ncc2F)CC1(C)C [Compound I-378] | 3.5 | 310 | 42.9 | 
Cc1cc(Nc2ncc(F)c(NC3CC(C)(C)N(C)C(C)(C)C3)n2)ccc1-c1ccoc1 [Compound I-122] | 60.7 | 295 | 18.7 | 
COc1cc(Nc2ncc(C#N)c(NC3CC(C)(C)N(C)C(C)(C)C3)n2)cc(-n2nnnc2C)c1 [Compound I-365] | 0.62 | 56.6 | 7.34 | 
CN1C(C)(C)CC(Nc2nc(Nc3cccc(-c4ccoc4)c3)ncc2F)CC1(C)C [Compound I-105] | 26 | 221 | 154 | 
COc1ccc(Nc2ncc(Cl)c(NC3CC(C)(C)N(C)C(C)(C)C3)n2)cc1OC(F)F [Compound I-341] | 0.55 | 45.6 | 53.2 | 
COc1ccc(Nc2ncc(F)c(NC3CC(C)(C)N(C)C(C)(C)C3)n2)cc1OC(F)F [Compound I-239] | 2.06 | 99.1 | 54.6 | 
CCOc1ccc(Nc2ncc(C(N)=O)c(NC3CC(C)(C)N(C)C(C)(C)C3)n2)cc1-n1nnnc1CC [Compound I-420] | 3.2 | 250 | 115 | 
Cc1ccc(Nc2ncc(F)c(NC3CC(C)(C)N(C)C(C)(C)C3)n2)cc1-c1cccnc1 [Compound I-197] | 4.38 |  | 60.3 | 237
CN1C(C)(C)CC(Nc2nc(Nc3ccc4ncccc4c3)ncc2F)CC1(C)C [II-1] | 9.66 | 612 | 144 | 
COc1cc(Nc2ncc(C#N)c(NC3CC(C)(C)N(C)C(C)(C)C3)n2)cc(OC)c1 [Compound I-364] | 4.1 | 270 | 27.8 | 
COc1cc(Nc2ncc(Cl)c(NC3CC(C)(C)N(C)C(C)(C)C3)n2)cc(OC)c1 [Compound I-340] | 2.81 | 159 | 15.6 | 
CSc1nnnn1-c1cccc(Nc2ncc(C#N)c(NC3CC(C)(C)NC(C)(C)C3)n2)c1 [Compound I-465] | 3.4 | 280 | 115 | 
CN1C(=O)C(F)(F)Oc2cc(Nc3ncc(F)c(NC4CC(C)(C)N(C)C(C)(C)C4)n3)ccc21 [II-8] | 2.43 | 90 | 57.9 | 
CC1(C)CC(Nc2nc(Nc3ccc4c(c3)OCC(=O)N4CCF)ncc2C#N)CC(C)(C)N1 [II-171] | 2.4 | 260 | 775 | 
CN1C(C)(C)CC(Nc2nc(Nc3cccc(-n4cnnn4)c3)ncc2F)CC1(C)C [Compound I-357] | 5.11 | 67.6 | 7.11 | 
CN1C(C)(C)CC(Nc2nc(Nc3cccc(Br)c3)ncc2F)CC1(C)C [Compound I-104] | 15.8 | 79.8 | 62.8 | 
COc1ccc(Nc2ncc(C#N)c(NC3CC(C)(C)N(C)C(C)(C)C3)n2)cc1-n1c(C)ccc1C [Compound I-376] | 0.4 | 260 | 935 | 
CN1C(C)(C)CC(Nc2nc(Nc3ccc(-c4cccnc4)c(F)c3)ncc2F)CC1(C)C [Compound I-118] | 18.2 | 237 | 10.3 | 
